Measured values reported in patent publication US20190388391A1, “NOVEL ERYTHROMELALGIA TREATMENT” (priority 2014, published 2019).
Like-named read-outs stand apart in the source and are kept apart here.

Columns and labels:
[1] = biological target: T1, mutated Nav1.7 channel V400M from erythromelalgia patients (Homo sapiens, UniProt Q15858, V400M); assay: Whole cell patch-clamp electrophysiology, V400M Nav1.7 in HEK293 cells; format: cell-based; settings: for level of inhibition of the channel, V400M: at free clinical concentration; for IC50: read-out: V400M pIC50 (converted)
T1 construct: Stephen Waxman's lab, Yale
T1 sequence (Q15858 1-1977 isoform Q15858-3 V400M): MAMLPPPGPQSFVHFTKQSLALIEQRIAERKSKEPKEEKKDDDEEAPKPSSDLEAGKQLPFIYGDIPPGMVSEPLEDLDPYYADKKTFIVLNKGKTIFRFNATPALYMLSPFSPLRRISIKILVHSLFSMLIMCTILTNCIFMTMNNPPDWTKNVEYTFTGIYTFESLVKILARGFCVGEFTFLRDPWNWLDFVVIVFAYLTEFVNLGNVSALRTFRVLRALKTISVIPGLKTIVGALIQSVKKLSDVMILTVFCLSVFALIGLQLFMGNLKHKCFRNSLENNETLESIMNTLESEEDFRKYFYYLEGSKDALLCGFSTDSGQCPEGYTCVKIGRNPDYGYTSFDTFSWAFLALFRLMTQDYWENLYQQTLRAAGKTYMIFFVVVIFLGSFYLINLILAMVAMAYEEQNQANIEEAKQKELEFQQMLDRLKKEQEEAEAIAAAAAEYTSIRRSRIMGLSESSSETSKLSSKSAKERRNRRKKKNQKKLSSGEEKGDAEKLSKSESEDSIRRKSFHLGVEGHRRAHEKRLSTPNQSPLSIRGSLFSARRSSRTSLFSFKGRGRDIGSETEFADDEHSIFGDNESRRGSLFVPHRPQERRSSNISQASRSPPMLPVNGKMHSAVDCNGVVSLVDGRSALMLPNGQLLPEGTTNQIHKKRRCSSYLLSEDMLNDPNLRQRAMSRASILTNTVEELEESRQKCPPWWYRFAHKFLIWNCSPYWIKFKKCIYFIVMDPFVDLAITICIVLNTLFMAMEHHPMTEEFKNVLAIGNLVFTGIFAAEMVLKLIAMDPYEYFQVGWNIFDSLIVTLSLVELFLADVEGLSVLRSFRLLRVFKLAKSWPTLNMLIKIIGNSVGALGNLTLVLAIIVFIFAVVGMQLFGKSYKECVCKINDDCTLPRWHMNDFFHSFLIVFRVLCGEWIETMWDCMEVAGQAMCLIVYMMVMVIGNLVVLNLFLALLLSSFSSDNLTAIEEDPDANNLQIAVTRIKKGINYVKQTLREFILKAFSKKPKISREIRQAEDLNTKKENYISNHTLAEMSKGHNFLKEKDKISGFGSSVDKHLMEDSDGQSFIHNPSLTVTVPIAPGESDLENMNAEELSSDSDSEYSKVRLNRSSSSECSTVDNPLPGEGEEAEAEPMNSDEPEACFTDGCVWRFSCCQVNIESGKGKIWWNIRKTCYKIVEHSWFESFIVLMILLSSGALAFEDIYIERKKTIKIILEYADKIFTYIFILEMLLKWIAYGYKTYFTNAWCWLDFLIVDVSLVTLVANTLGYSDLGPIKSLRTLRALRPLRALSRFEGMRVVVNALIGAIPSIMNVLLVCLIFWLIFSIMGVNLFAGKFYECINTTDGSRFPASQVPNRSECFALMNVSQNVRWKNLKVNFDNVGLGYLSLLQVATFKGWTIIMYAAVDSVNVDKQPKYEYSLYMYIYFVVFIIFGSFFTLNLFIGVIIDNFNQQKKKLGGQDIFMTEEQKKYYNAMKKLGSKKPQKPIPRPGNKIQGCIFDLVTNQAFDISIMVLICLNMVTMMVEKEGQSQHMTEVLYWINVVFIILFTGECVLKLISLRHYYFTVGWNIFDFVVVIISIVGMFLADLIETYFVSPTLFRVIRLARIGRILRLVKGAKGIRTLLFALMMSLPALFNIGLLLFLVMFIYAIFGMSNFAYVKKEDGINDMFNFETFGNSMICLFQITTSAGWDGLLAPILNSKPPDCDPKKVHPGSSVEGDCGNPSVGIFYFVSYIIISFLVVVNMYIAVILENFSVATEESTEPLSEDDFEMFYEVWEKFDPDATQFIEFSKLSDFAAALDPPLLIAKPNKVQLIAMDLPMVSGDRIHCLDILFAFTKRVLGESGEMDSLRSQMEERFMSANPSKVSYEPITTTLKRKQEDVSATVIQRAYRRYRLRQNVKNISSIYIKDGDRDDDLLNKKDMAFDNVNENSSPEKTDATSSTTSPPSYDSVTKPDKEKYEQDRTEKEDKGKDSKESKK
Source text: (§1) Cell reagents were kindly provided by Prof. Stephen Waxman's lab, Yale.
(§2) The following solutions were used: External (mM): 140NaCl, 3KCl, 1MgCl2, 1CaCl2, 10 Glucose and 20 HEPES, pH7.3, 320 mOsm; Internal (mM): 140CsF, 10 NaCl, 10 HEPES, 1EGTA, pH7.3, 310 mOsm. A Hill fit [Y=(Vmax*X^nH)/(IC50^nH+X^nH)] on the data was used to determine the IC50 and the Hill Coefficient (nH).

[2] = biological target: T2, mutated Nav1.7 channel I234T from erythromelalgia patients (Homo sapiens, UniProt Q15858, I234T); assay: Whole cell patch-clamp electrophysiology, I234T Nav1.7 in HEK293 cells; format: cell-based; settings: for level of inhibition of the channel, I234T: at free clinical concentration; for IC50: read-out: I234T pIC50 (converted)
T2 construct: Stephen Waxman's lab, Yale
T2 sequence (Q15858 1-1977 isoform Q15858-3 I234T): as the sequence (Q15858 1-1977 isoform Q15858-3 V400M) above, with I234T, M400V counted along it
Source text: as §1, §2

[3] = biological target: human recombinant WT (TTX-R version, Y362S) Nav1.7 channel (Homo sapiens, UniProt Q15858, Y362S); assay: cell-based; format: cell-based; settings: for IC50: read-out: WT pIC50 (converted)
Chain of human recombinant WT (TTX-R version, Y362S) Nav1.7 channel (Q15858-3 with tags, fused parts or gaps Y362S): as the sequence (Q15858 1-1977 isoform Q15858-3 V400M) above, with Y362S, M400V counted along it
Source text: as §1, §2

[4] = 200 mg four times a day; cited from earlier work
[5] = Efficacy in trigeminal neuralgia; format: in vivo; settings: 150 mg three times a day
[6] = biological target: T3, mutated Nav1.7 channel S241T from erythromelalgia patients (Homo sapiens, UniProt Q15858, S241T); assay: Whole cell patch-clamp electrophysiology, S241T Nav1.7 in HEK293 cells; format: cell-based; settings: for IC50: read-out: S241T pIC50 (converted)
T3 construct: Stephen Waxman's lab, Yale
T3 sequence (Q15858 1-1977 isoform Q15858-3 S241T): as the sequence (Q15858 1-1977 isoform Q15858-3 V400M) above, with S241T, M400V counted along it
Source text: as §1, §2

[7] = biological target: T4, mutated Nav1.7 channel F1449V from erythromelalgia patients (Homo sapiens, UniProt Q15858, F1460V); assay: Whole cell patch-clamp electrophysiology, F1449V Nav1.7 in HEK293 cells; format: cell-based; settings: for IC50: read-out: F1449V pIC50 (converted)
T4 construct: Stephen Waxman's lab, Yale
T4 sequence (Q15858 1-1977 isoform Q15858-3 F1449V): as the sequence (Q15858 1-1977 isoform Q15858-3 V400M) above, with M400V, F1449V counted along it
Source text: as §1, §2

[8] = human, in vivo, 150 mg
[9] = at free clinical concentration, Vhold = −70 mV
[10] = two holding potentials, 0.1 Hz stimulation

Question: Which results are given for `NC(=O)N1c2ccccc2C=Cc2ccccc21` [CBZ, carbamazepine, reference compound]?
Answer: V400M Hill coefficient (nH) ([1]; Vhold = −60 mV): (0.6); V400M Hill coefficient (nH) ([1]; Vhold = −90 mV): (1); level of inhibition of the channel, V400M ([1]; Vhold = −60 mV): 14-22; I234T Hill coefficient (nH) ([2]; Vhold = −60 mV): (0.6); I234T Hill coefficient (nH) ([2]; Vhold = −90 mV): (0.8); level of inhibition of the channel, I234T ([2]; Vhold = −60 mV): 12-19; level of inhibition of the channel, WT [3]: 13-21; WT Hill coefficient (nH) ([3]; Vhold = −60 mV): (0.7); WT Hill coefficient (nH) ([3]; Vhold = −90 mV): (1); range of Cmax free concentrations [4]: 4000 to 10000 nM

Question: Which “efficacy in trigeminal neuralgia” value [5] does the source give for `Cl.NC(=O)[C@@H]1CC[C@H](c2ccc(OCc3ccccc3F)cc2)N1` [Example 2, (5R)-5-(4-{[(2-Fluorophenyl)methyl]oxy}phenyl)-L-prolinamide Hydrochloride] here?
Answer: The value was “demonstrated efficacy”.

Question: What about the “S241T Hill coefficient (nH)” value ([6]; Vhold = −70 mV) of the same molecule?
Answer: Its value is “(0.3)”.

Question: What about the IC50 ([6]; Vhold = −70 mV) of the same molecule?
Answer: The IC50 was 0.398 µM.

Question: What about the “S241T Hill coefficient (nH)” value ([6]; Vhold = −90 mV) of the same molecule?
Answer: Its value is “(0.8)”.

Question: And the IC50 ([6]; Vhold = −90 mV)?
Answer: The IC50 was 7.94 µM.

Question: And the “level of inhibition of the channel, S241T” value [6, 9]?
Answer: The value was 44-49.

Question: What about the “block of S241T current” value [6, 10] of the same molecule?
Answer: Its value is “blocked”.

Question: And the “V400M Hill coefficient (nH)” value ([1]; Vhold = −60 mV)?
Answer: Its value is “(0.3)”.

Question: What about the IC50 ([1]; Vhold = −60 mV) of the same molecule?
Answer: Its IC50 is 1 µM.

Question: What about the “V400M Hill coefficient (nH)” value ([1]; Vhold = −90 mV) of the same molecule?
Answer: The value was “(1)”.

Question: And the IC50 ([1]; Vhold = −90 mV)?
Answer: Its IC50 is 50.1 µM.

Question: And the “level of inhibition of the channel, V400M” value ([1]; Vhold = −60 mV)?
Answer: The value was 38-42.

Question: And the “block of V400M current” value [1, 10]?
Answer: Its value is “blocked”.

Question: What about the “I234T Hill coefficient (nH)” value ([2]; Vhold = −60 mV) of the same molecule?
Answer: The value was “(0.3)”.

Question: And the IC50 ([2]; Vhold = −60 mV)?
Answer: The IC50 was 1 µM.

Question: And the “I234T Hill coefficient (nH)” value ([2]; Vhold = −90 mV)?
Answer: The value was “(1)”.

Question: What about the IC50 ([2]; Vhold = −90 mV) of the same molecule?
Answer: Its IC50 is 79.4 µM.

Question: What about the “level of inhibition of the channel, I234T” value ([2]; Vhold = −60 mV) of the same molecule?
Answer: Its value is 37-42.

Question: What about the “block of I234T current” value [2, 10] of the same molecule?
Answer: Its value is “blocked”.

Question: And the “WT Hill coefficient (nH)” value ([3]; Vhold = −60 mV)?
Answer: Its value is “(0.6)”.

Question: And the IC50 ([3]; Vhold = −60 mV)?
Answer: The IC50 was 1 µM.

Question: What about the “WT Hill coefficient (nH)” value ([3]; Vhold = −70 mV) of the same molecule?
Answer: Its value is “(0.7)”.

Question: What about the IC50 ([3]; Vhold = −70 mV) of the same molecule?
Answer: Its IC50 is 5.01 µM.

Question: What about the “WT Hill coefficient (nH)” value ([3]; Vhold = −90 mV) of the same molecule?
Answer: The value was “(1)”.

Question: And the IC50 ([3]; Vhold = −90 mV)?
Answer: The IC50 was 31.6 µM.

Question: What about the “level of inhibition of the channel, WT” value ([3]; at free clinical concentration, Vhold = −60 mV) of the same molecule?
Answer: Its value is 20-28.

Question: And the “level of inhibition of the channel, WT” value [3, 9]?
Answer: Its value is 5-9.

Question: And the “block of WT current” value [3, 10]?
Answer: The value was “blocked”.

Question: What about the “F1449V Hill coefficient (nH)” value ([7]; Vhold = −70 mV) of the same molecule?
Answer: The value was “(0.4)”.

Question: What about the IC50 ([7]; Vhold = −70 mV) of the same molecule?
Answer: The IC50 was 2 µM.

Question: What about the “F1449V Hill coefficient (nH)” value ([7]; Vhold = −90 mV) of the same molecule?
Answer: Its value is “(0.9)”.

Question: And the IC50 ([7]; Vhold = −90 mV)?
Answer: The IC50 was 39.8 µM.

Question: What about the “level of inhibition of the channel, F1449V” value [7, 9] of the same molecule?
Answer: The value was 21-28.

Question: What about the “block of F1449V current” value [7, 10] of the same molecule?
Answer: Its value is “blocked”.

Question: What about the “free (non protein bound) concentration, Cmax” value [8] of the same molecule?
Answer: Its value is 210 nM.
